From paper PMC5578999, “Novel quinolone chalcones targeting colchicine-binding pocket kill multidrug-resistant cancer cells by inhibiting tubulin activity and MRP1 function” (Scientific Reports, 2017)

Experiments:
[1] = system: SW-1271; experiment: SRB cell viability; assay type: cell-based; conditions: SW1271
Method: (§1) Cell line authentication was carried out by Genetica DNA
(§2) Cell viability, com binational i ndex and cell synchronization
(§3) Cell viability and proliferation were ex amined using a s ulforhodamine B (SRB) assa y as […]
(§4) IC 50 values were calculat ed from si gmoidal dose-response cu rves gen erat ed b y at least two indepen dent ex periments , with each quadruplicate samples, using GraphPad Prism v.5.04 software (GraphPad Software, Inc, La J olla, CA). […]
(§5) (sham) or presence of compound(s). […]

[2] = system: KB-C-2; experiment: SRB cell viability, MDR1-overexpressing cells; assay type: cell-based, human; conditions: KB-C-2 vs KB-C-1; Table S1
[3] = system: MDA-MB-231 triple-negative metastatic breast cancer cells; experiment: Antitumor activity in engrafted athymic mice; assay type: in vivo, ATH490 athymic mice; conditions: for tumor volume Day 0 / tumor volume Day 6: Tax 10 mg/kg i.v. once/week, CTR 30 mg/kg i.p. every 3-4 days, combinations Tax 5 + CTR 15 mg/kg once/week; for tumor volume Day 6: sham 105.03; for tumor volume Day 14 / tumor volume Day 17 / tumor volume Day 20 / tumor volume Day 24 / tumor volume Day 27 / tumor volume Day 30: same doses; for tumor volume Day 14: sham 136.66; for tumor volume Day 17: sham 162.62; for tumor volume Day 20: sham 192.69; for tumor volume Day 24: sham 268.08; for tumor volume Day 27: sham 426.87; for tumor volume Day 30: sham 557.66
Method: The animals were then immediately euthanized by carbon dioxide. […]
Supplementary Table S2. A typical treatment protocol of engrafted mice with CTR alone or in
combination with paclitaxel.
Treatment Dos a ge Frequ enc y Route Notes
Sham control Highest volume E v e r y 3-4 d a ys Intraperitoneal (I.P.) Vehicle onl y
Taxa 10 mg/kgb Once/week Intravenous ( I.V.)
CTR-17 (30) 30 mg/kg E v e r y 3-4 d a ys I. P .
CTR-20 (30) 30 mg/kg E v e r y 3-4 d a ys I. P .
Supplementary Table S 3: Antitumor activity of CTR -17 and CTR -20, alone or in combination
a Tax: paclitaxel. b mg per kg of bod y wei ght. c unit is mm 3. […]

[4] = system: KB-C-2; experiment: SRB cell viability, MDR1-overexpressing cells; assay type: cell-based; conditions: Homo sapiens, KB-C2; KB-C-2 MDR1-overexpressing cells
Method: (§6) human epidermoid carcinoma cell line and KB-C2, an isogenic MDR1- overexpressing drug-resistant cell line, were kindl y provided b y Dr. Amit K Tiwari, the Universit y of Toledo, OH. […]
as §1, §2, §3, §4, §5

[5] = system: KB-C-1; experiment: SRB cell viability, parental cells; assay type: cell-based; conditions: Homo sapiens, KBC-1; parental KB-C-1
Method: as §6, §1, §2, §3, §4, §5

[6] = system: NCI-60 cancer cell lines; experiment: NCI-60 SRB screen, panel means; assay type: cell-based; conditions: mean of panel
Text: (§7) Supplementary Table S 3: Antitumor activity of CTR -17 and CTR -20, alone or in combination […]
(§8) a Tax: paclitaxel. b mg per kg of bod y wei ght. c unit is mm 3.
(§9) Supplementary Figure l egend
(§10) 10μ M of CTR-20 was used to examine the drug’s efficac y against the NC I-60 cancer cell li nes including: six leukemia cell lines, nine non- small cell lung cancer cell lines, seven color ect al cancer cell lines, six CNS cancer cell lines, nine melanoma cell lines, seven ovari an can cer cell lines, seven ren al can cer cell lines, two prostate cancer cell lines and six breast cancer cell lines. The scr eenin g was car r ied out b y the US National Cancer Institute (NC I) us i n g a sulforhodamine B (SRB) colorimetric assay. […]
(§11) out by the NC I using five different doses of CTR -20.

[7] = system: COLO 205; experiment: NCI-60 SRB screen; assay type: cell-based; conditions: 1.00E-5 Molar
Text: as §7, §8, §9, §10, §11

[8] = system: ACHN; experiment: NCI-60 SRB screen; assay type: cell-based; conditions: 1.00E-5 Molar
Text: as §7, §8, §9, §10, §11

[9] = system: HCT-116; experiment: NCI-60 SRB screen; assay type: cell-based
Text: as §7, §8, §9, §10, §11

[10] = system: MOLT-4; experiment: NCI-60 SRB screen; assay type: cell-based
Text: as §7, §8, §9, §10, §11

[11] = system: SNB-75; experiment: NCI-60 SRB screen; assay type: cell-based
Text: as §7, §8, §9, §10, §11

[12] = system: HS 578T; experiment: NCI-60 SRB screen; assay type: cell-based
Text: as §7, §8, §9, §10, §11

[13] = system: A549/ATCC; experiment: NCI-60 SRB screen; assay type: cell-based
Text: as §9, §10, §11

[14] = system: IGROV1; experiment: NCI-60 SRB screen; assay type: cell-based
Text: as §9, §10, §11

[15] = Homo sapiens, read-out: LC50 (the source's name)

SMILES: COc1ccccc1C(=O)/C=C/c1cc2ccccc2[nH]c1=O [CTR-17, (E)-3-(3-(2-Methoxyphenyl)-3-oxoprop-1-enyl)quinolin-2(1H)-one]
- IC50 [1]: 1140 ± 40 nM
- Resistance (fold) [2]: 1.71 fold
- tumor volume Day 0 [3]: 86.71 mm3
- tumor volume Day 6 [3]: 63.99 mm3
- tumor volume Day 14 [3]: 90.07 mm3
- tumor volume Day 17 [3]: 128.36 mm3
- tumor volume Day 20 [3]: 134.76 mm3
- tumor volume Day 24 [3]: 160.86 mm3
- tumor volume Day 27 [3]: 189.45 mm3
- tumor volume Day 30 [3]: 209.84 mm3
- IC50 [4]: 650 ± 160 nM
- IC50 [5]: 380 ± 70 nM

SMILES: COc1ccc2[nH]c(=O)c(/C=C/C(=O)c3ccccc3OC)cc2c1 [CTR-20, (E)-6-Methoxy-3-(3-(2-methoxyphenyl)-3-oxoprop-1-enyl) quinolin-2(1H)-one]
- IC50 [1]: 1950 ± 10 nM
- Resistance (fold) [2]: 2.50 fold
- Mean Growth Percent ([6]; 1.00E-5 Molar): 13.21%
- Log10GI50 _MID [6]: -6.21 Molar
- Log10LC50 _MID [6]: -4.58 Molar
- Log10TGI _MID [6]: -5.29 Molar
- tumor volume Day 0 [3]: 92.51 mm3
- tumor volume Day 6 [3]: 69.89 mm3
- tumor volume Day 14 [3]: 84.64 mm3
- tumor volume Day 17 [3]: 97.11 mm3
- tumor volume Day 20 [3]: 97.22 mm3
- tumor volume Day 24 [3]: 106.26 mm3
- tumor volume Day 27 [3]: 124.88 mm3
- tumor volume Day 30 [3]: 140.63 mm3
- Growth Percent [7]: 20.45%
- Growth Percent [8]: 38.84%
- Log10GI50 [9]: -6.46 Molar
- Log10LC50 [9]: -5.26 Molar
- Log10TGI [9]: -5.83 Molar
- TGI [9]: 1.48E-6 Molar
- Growth Percent ([9]; 1.00E-5 Molar): 16.04%
- GI50 ([9]; Homo sapiens): 348 nM
- CC50 [9, 15]: 5480 nM
- Percent Growth ([9]; Log10 Concentration -4.0): -96%
- Percent Growth ([9]; Log10 Concentration -5.0): -73%
- Percent Growth ([9]; Log10 Concentration -6.0): 15%
- Percent Growth ([9]; Log10 Concentration -7.0): 92%
- Percent Growth ([9]; Log10 Concentration -8.0): 94%
- Log10GI50 [10]: -6.38 Molar
- Log10LC50 [10]: > -4.00 Molar
- Log10TGI [10]: -4.57 Molar
- TGI [10]: 2.71E-5 Molar
- Growth Percent ([10]; 1.00E-5 Molar): 10.88%
- GI50 ([10]; Homo sapiens): 421 nM
- CC50 [10, 15]: > 100000 nM
- Percent Growth ([10]; Log10 Concentration -4.0): -12%
- Percent Growth ([10]; Log10 Concentration -5.0): 9%
- Percent Growth ([10]; Log10 Concentration -6.0): 21%
- Percent Growth ([10]; Log10 Concentration -7.0): 98%
- Percent Growth ([10]; Log10 Concentration -8.0): 97%
- Log10GI50 [11]: -6.33 Molar
- Log10LC50 [11]: -4.42 Molar
- Log10TGI [11]: -4.85 Molar
- TGI [11]: 1.42E-5 Molar
- Growth Percent ([11]; 1.00E-5 Molar): -11.48%
- GI50 ([11]; Homo sapiens): 470 nM
- CC50 [11, 15]: 37800 nM
- Percent Growth ([11]; Log10 Concentration -4.0): -100%
- Percent Growth ([11]; Log10 Concentration -5.0): 18%
- Percent Growth ([11]; Log10 Concentration -6.0): 34%
- Percent Growth ([11]; Log10 Concentration -7.0): 82%
- Percent Growth ([11]; Log10 Concentration -8.0): 86%
- Log10LC50 [12]: > -4.00 Molar
- Log10TGI [12]: -4.08 Molar
- TGI [12]: 8.38E-5 Molar
- Growth Percent ([12]; 1.00E-5 Molar): 8.33%
- CC50 [12, 15]: > 100000 nM
- Percent Growth ([12]; Log10 Concentration -4.0): -8%
- Percent Growth ([12]; Log10 Concentration -5.0): 91%
- Percent Growth ([12]; Log10 Concentration -6.0): 37%
- Percent Growth ([12]; Log10 Concentration -7.0): 98%
- Percent Growth ([12]; Log10 Concentration -8.0): 96%
- IC50 [4]: 250 ± 30 nM
- Log10GI50 [13]: -5.68 Molar
- Log10LC50 [13]: -4.42 Molar
- Log10TGI [13]: -4.98 Molar
- TGI [13]: 1.04E-5 Molar
- Growth Percent ([13]; 1.00E-5 Molar): 10.42%
- GI50 ([13]; Homo sapiens): 2090 nM
- CC50 [13, 15]: 37900 nM
- Percent Growth ([13]; Log10 Concentration -4.0): -88%
- Percent Growth ([13]; Log10 Concentration -5.0): 2%
- Percent Growth ([13]; Log10 Concentration -6.0): 73%
- Percent Growth ([13]; Log10 Concentration -7.0): 114%
- Percent Growth ([13]; Log10 Concentration -8.0): 106%
- Log10GI50 [14]: -6.24 Molar
- Log10LC50 [14]: > -4.00 Molar
- Log10TGI [14]: -4.77 Molar
- TGI [14]: 1.70E-5 Molar
- Growth Percent ([14]; 1.00E-5 Molar): 14.55%
- GI50 ([14]; Homo sapiens, IGROV-1): 582 nM
- CC50 ([14]; Homo sapiens, IGROV-1, read-out: LC50 (the source's name)): > 100000 nM
- Percent Growth ([14]; Log10 Concentration -4.0): -27%
- Percent Growth ([14]; Log10 Concentration -5.0): 8%
- Percent Growth ([14]; Log10 Concentration -6.0): 40%
- Percent Growth ([14]; Log10 Concentration -7.0): 82%
- Percent Growth ([14]; Log10 Concentration -8.0): 99%
- IC50 [5]: 100 ± 10 nM
